In ChEMBL document CHEMBL1201862, “PubChem BioAssay data set” (2004):
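Exposure lasted 48 hours, with cells grown in 96-well plates and compounds tested at five concentrations. Here, GI50 denotes the concentration required for 50% inhibition of growth.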 Activity calls are given as the source filed them. Rule as the data show it: active = GI50 up to about 1.1 µM and inactive = higher.

How the values were obtained:
Test in all cases: NCI tumour cell line growth inhibition, 48 h
HL-60 = test system: HL-60
CCRF-CEM = test system: CCRF-CEM
SW-620 = test system: SW-620
COLO 205 = test system: COLO 205
PC-3 = test system: PC-3
T47D = test system: T47D
DU-145 = test system: DU-145
SN12C = test system: SN12C
Malme-3M = test system: Malme-3M
HCC 2998 = test system: HCC 2998
EKVX = test system: EKVX
IGROV-1 = test system: IGROV-1
OVCAR-8 = test system: OVCAR-8
MCF7 = test system: MCF7
M14 = test system: M14
BT-549 = test system: BT-549
UO-31 = test system: UO-31
OVCAR-5 = test system: OVCAR-5
LOX IMVI = test system: LOX IMVI
UACC-257 = test system: UACC-257
Hs-578T = test system: Hs-578T
NCI-H460 = test system: NCI-H460
MDA-MB-231 = test system: MDA-MB-231
RXF 393 = test system: RXF 393
U-251 = test system: U-251
HCT-116 = test system: HCT-116
SR = test system: SR
SK-OV-3 = test system: SK-OV-3
CAKI-1 = test system: CAKI-1
NCI/ADR-RES = test system: NCI/ADR-RES
NCI-H226 = test system: NCI-H226
786-0 = test system: 786-0
KM12 = test system: KM12
SK-MEL-2 = test system: SK-MEL-2
A549 = test system: A549
HOP-62 = test system: HOP-62
HOP-92 = test system: HOP-92
SF-539 = test system: SF-539
RPMI-8226 = test system: RPMI-8226
HT-29 = test system: HT-29
SNB-75 = test system: SNB-75
ACHN = test system: ACHN
SF-295 = test system: SF-295
SNB-19 = test system: SNB-19
TK-10 = test system: TK-10
A498 = test system: A498
SK-MEL-28 = test system: SK-MEL-28
NCI-H522 = test system: NCI-H522
MDA-N = test system: MDA-N
MDA-MB-435 = test system: MDA-MB-435
MOLT-4 = test system: MOLT-4
NCI-H23 = test system: NCI-H23
K562 = test system: K562
SK-MEL-5 = test system: SK-MEL-5
OVCAR-4 = test system: OVCAR-4
UACC-62 = test system: UACC-62
SF-268 = test system: SF-268
OVCAR-3 = test system: OVCAR-3
HCT-15 = test system: HCT-15

Cc1cn([C@@H]2O[C@H](CO)[C@@H](O)[C@@H]2O)c(=O)[nH]c1=O
GI50 (HL-60): > 1000 µM (inactive)
GI50 (CCRF-CEM): > 1000 µM (inactive)
GI50 (SW-620): > 1000 µM (inactive)
GI50 (COLO 205): > 1000 µM (inactive)
GI50 (PC-3): > 1000 µM (inactive)
GI50 (T47D): > 1000 µM (inactive)
GI50 (DU-145): > 1000 µM (inactive)
GI50 (SN12C): > 1000 µM (inactive)
GI50 (Malme-3M): > 1000 µM (inactive)
GI50 (HCC 2998): > 1000 µM (inactive)
GI50 (EKVX): > 1000 µM (inactive)
GI50 (IGROV-1): > 1000 µM (inactive)
GI50 (OVCAR-8): > 1000 µM (inactive)
GI50 (MCF7): > 1000 µM (inactive)
GI50 (M14): > 1000 µM (inactive)
GI50 (BT-549): > 1000 µM (inactive)
GI50 (UO-31): > 1000 µM (inactive)
GI50 (OVCAR-5): > 1000 µM (inactive)
GI50 (LOX IMVI): > 1000 µM (inactive)
GI50 (UACC-257): > 1000 µM (inactive)
GI50 (Hs-578T): > 1000 µM (inactive)
GI50 (NCI-H460): > 1000 µM (inactive)
GI50 (MDA-MB-231): > 1000 µM (inactive)
GI50 (RXF 393): > 1000 µM (inactive)
GI50 (U-251): > 1000 µM (inactive)
GI50 (HCT-116): > 1000 µM (inactive)
GI50 (SR): > 1000 µM (inactive)
GI50 (SK-OV-3): > 1000 µM (inactive)
GI50 (CAKI-1): > 1000 µM (inactive)
GI50 (NCI/ADR-RES): > 1000 µM (inactive)
GI50 (NCI-H226): > 1000 µM (inactive)
GI50 (786-0): > 1000 µM (inactive)
GI50 (KM12): > 1000 µM (inactive)
GI50 (SK-MEL-2): > 1000 µM (inactive)
GI50 (A549): > 1000 µM (inactive)
GI50 (HOP-62): > 1000 µM (inactive)
GI50 (HOP-92): > 1000 µM (inactive)
GI50 (SF-539): > 1000 µM (inactive)
GI50 (RPMI-8226): > 1000 µM (inactive)
GI50 (HT-29): > 1000 µM (inactive)
GI50 (SNB-75): > 1000 µM (inactive)
GI50 (ACHN): > 1000 µM (inactive)
GI50 (SF-295): > 1000 µM (inactive)
GI50 (SNB-19): > 1000 µM (inactive)
GI50 (TK-10): > 1000 µM (inactive)
GI50 (A498): > 1000 µM (inactive)
GI50 (SK-MEL-28): > 1000 µM (inactive)
GI50 (NCI-H522): > 1000 µM (inactive)
GI50 (MDA-N): > 1000 µM (inactive)
GI50 (MDA-MB-435): > 1000 µM (inactive)
GI50 (MOLT-4): > 1000 µM (inactive)
GI50 (NCI-H23): > 1000 µM (inactive)
GI50 (K562): > 1000 µM (inactive)
GI50 (SK-MEL-5): > 1000 µM (inactive)
GI50 (OVCAR-4): > 1000 µM (inactive)
GI50 (UACC-62): > 1000 µM (inactive)
GI50 (SF-268): > 1000 µM (inactive)
GI50 (OVCAR-3): > 1000 µM (inactive)
GI50 (HCT-15): > 1000 µM

CC(C)(C)NCCC(O)c1cc(C(F)(F)F)nc2c(C(F)(F)F)cccc12 (stereo not drawn)
GI50 (HL-60): 6.37 µM (inactive)
GI50 (CCRF-CEM): 5.57 µM (inactive)
GI50 (SW-620): 18 µM (inactive)
GI50 (COLO 205): 10.7 µM (inactive)
GI50 (PC-3): 8.57 µM (inactive)
GI50 (T47D): 14.3 µM (inactive)
GI50 (DU-145): 2.38 µM (inactive)
GI50 (SN12C): 7.71 µM (inactive)
GI50 (Malme-3M): 11.6 µM (inactive)
GI50 (HCC 2998): 2.43 µM (inactive)
GI50 (EKVX): 14 µM (inactive)
GI50 (IGROV-1): 10.3 µM (inactive)
GI50 (OVCAR-8): 7.53 µM (inactive)
GI50 (MCF7): 12.6 µM (inactive)
GI50 (M14): 7.83 µM (inactive)
GI50 (BT-549): 8.11 µM (inactive)
GI50 (UO-31): 0.502 µM (active)
GI50 (OVCAR-5): 15.2 µM (inactive)
GI50 (LOX IMVI): 1.12 µM (inactive)
GI50 (UACC-257): 13.5 µM (inactive)
GI50 (Hs-578T): 14.2 µM (inactive)
GI50 (NCI-H460): 4.83 µM (inactive)
GI50 (MDA-MB-231): 9.4 µM (inactive)
GI50 (RXF 393): 6.53 µM (inactive)
GI50 (U-251): 7.53 µM (inactive)
GI50 (HCT-116): 5.07 µM (inactive)
GI50 (SR): 3.62 µM (inactive)
GI50 (SK-OV-3): 16.2 µM (inactive)
GI50 (CAKI-1): 4.25 µM (inactive)
GI50 (NCI/ADR-RES): 5.97 µM (inactive)
GI50 (NCI-H226): 17.3 µM (inactive)
GI50 (786-0): 6.98 µM (inactive)
GI50 (KM12): 2.77 µM (inactive)
GI50 (SK-MEL-2): 11.2 µM (inactive)
GI50 (A549): 4.38 µM (inactive)
GI50 (HOP-62): 4.67 µM (inactive)
GI50 (HOP-92): 12.3 µM (inactive)
GI50 (SF-539): 14.7 µM (inactive)
GI50 (RPMI-8226): 4.58 µM (inactive)
GI50 (HT-29): 6.08 µM (inactive)
GI50 (SNB-75): 11.1 µM (inactive)
GI50 (ACHN): 8.3 µM (inactive)
GI50 (SF-295): 8.75 µM (inactive)
GI50 (SNB-19): 13.6 µM (inactive)
GI50 (TK-10): 12.2 µM (inactive)
GI50 (A498): 15 µM (inactive)
GI50 (SK-MEL-28): 15.7 µM (inactive)
GI50 (NCI-H522): 11.7 µM (inactive)
GI50 (MDA-N): 11.5 µM (inactive)
GI50 (MDA-MB-435): 12.9 µM (inactive)
GI50 (MOLT-4): 4.12 µM (inactive)
GI50 (NCI-H23): 4.26 µM (inactive)
GI50 (K562): 5.14 µM (inactive)
GI50 (SK-MEL-5): 12.5 µM (inactive)
GI50 (OVCAR-4): 12.3 µM (inactive)
GI50 (UACC-62): 12.6 µM (inactive)
GI50 (SF-268): 11.4 µM (inactive)
GI50 (OVCAR-3): 8.38 µM (inactive)
GI50 (HCT-15): 6.41 µM
